# Experiments:
# [1] = Fractionation of lymphatic fluid into lipoprotein fractions by ultracentrifugation; type: in vivo; conditions: rat lymphatic fluid, 50 mg kg^−1 intra-duodenal
# Procedure: Briefly, acetonitrile was added to a final concentration of 60–80% to bone marrow, whole blood, plasma, lymphatic fluid, lymphatic proteo-lipid sub-fractions, or mesenteric lymph node samples for compound extraction. Extraction was performed by shaking and/or bead rupture using a Precellys Evolution tissue homogenizer (Bertin Technologies SAS). […] Optimization of MS and MS/MS parameters for MRM quantitation and maximum sensitivity of individual compounds was performed using SCIEX Analyst software (AB Sciex). […] All LC-MS/MS acquisitions were performed with an independent standard curve for each group of analytes and for each individual run. All solvents utilized were of Optima LC-MS Grade (Fisher Scientific). Data was generated from n ≥ 2 individual animals per compound per study condition or dose.
# [2] = system: phosphorylated ERK1/2 (pT202/pY204) in SET-2 cells; assay: Phospho-flow cytometry of pERK1/2 in SET-2 cells; type: cell-based, human; conditions: 5 μM, 16 h
# Procedure: The human megakaryoblastic cell line, SET-2 (ATCC), was maintained in RPMI 1640 supplemented with 20% FBS and incubated for 16 h at 10^6 cells mL^−1 with LP-182 or vehicle (DMSO; dimethyl sulfoxide), then washed in ice-cold PBS, and collected for flow cytometry analysis. Single-cell suspensions of mouse spleen were prepared from MPL^W515L MF mice (below) in RPMI 1640 supplemented with 5% FCS. Red blood cells were lysed by ammonium chloride-mediated red cell lysis (RCL) buffer and passed through a nylon mesh, and then cells were counted. For intracellular phospho-protein staining, SET-2 or spleen cells were fixed and then permeabilized using BD Phospho-flow fixation buffer and Perm-Buffer III (BD biosciences) according to the manufacturer’s protocol. Intracellular phospho-protein staining was performed using fluorochrome-conjugated antibodies, pAKT (pS473)-Alexa Fluor 647 (MB89-61) or pERK1/2 (pT202/pY204)-Alexa Fluor 647 (20 A). All phospho-flow antibodies were purchased from BD Biosciences. […] Flow cytometry was performed on a FACS Fortessa (Becton, Dickinson and Co.) using FACSDiVa software, and data analyzed using FlowJo software (Tree Star). […]
# Microsomal stability = type: in vitro ADME; conditions: mouse, liver microsomes; ~1 µM, NADPH, 37 °C; read-out: t1/2 in murine liver microsomes
# Procedure: Quantitative determination of LP-182 stability in murine liver microsomes was performed by the University of Michigan Pharmacokinetics Core. […]; in 100 mM phosphate buffer, 3 mM MgCl2) to a final concentration of […], and then reactions were sampled over 60 min. Aliquots were removed at the designated time points, quenched by addition of 4 volumes of cold acetonitrile, then centrifuged at 10,000 x g for 5 min to pellet protein precipitates. […] The natural log peak area ratio of compound to internal standard (Acmpd/AIstd) was plotted against time to determine pharmacokinetic properties of microsomal stability. All analyses, data processing, and calculations were performed and provided by the core. Data was generated from a single independent experiment.
compound,measurement,setting,value
"O=C(NOCCOCCOCCOCCC(=O)N1CCN(c2cnc3ccc(-c4cnc(Cl)c(NS(=O)(=O)c5ccc(F)cc5)c4)cc3n2)CC1)c1ccc(F)c(F)c1Nc1ccc(I)cc1F [LP-182, N-(2-(2-(2-(3-(4-(7-(6-chloro-5-((4-fluorophenyl)sulfonamido)pyridin-3-yl)quinoxalin-2-yl)piperazin-1-yl)-3-oxopropoxy)ethoxy)ethoxy)ethoxy)-3,4-difluoro-2-((2-fluoro-4-iodophenyl)amino)benzamide]","association with VLDL fraction, % of total",[1],9.7%
same,"association with chylomicron fraction, % of total",[1],8.0%
same,decrease of downstream activation of ERK1/2,[2],~ 50%
same,half-life,Microsomal stability,~8 min
